Assay results as given in PMC4164784, “4E-BPs require non-canonical 4E-binding motifs and a lateral surface of eIF4E to repress translation” (Nature Communications, 2014).
No end group written: not given here.

Tests used:
eIF4E (full length, WT) = assay: GST/MBP pull-down of full-length WT eIF4E, coexpressed in E. coli; type: binding, Drosophila melanogaster; details: recombinant CUP (311–440), Thor (full length), 4E-T (1–58) or eIF4G (578–650), WT or mutant, SDS–PAGE
Experimental: For the pull-down assays shown in Fig. 3 and Supplementary Fig. 6a, the full-length His6- or SHN-tagged eIF4E (WT or II-AA mutant) was coexpressed with GST or MBP-tagged protein fragments, including CUP (residues 311–440), Thor (full length), 4E-T (residues 1–58) or eIF4G (residues 578–650) in E. coli BL21 (DE3) STAR cells in autoinducing medium[44] overnight at 20 °C. The cells were resuspended in lysis buffer (20 mM Tris–HCl (pH 7.5), 100 mM NaCl, 1 mM DTT) supplemented with EDTA-free protease inhibitor (Roche) and lysed by sonication. The cleared lysates were incubated for 1 h with 20 μl of Protino Glutathione Agarose 4B beads (Macherey-Nagel) or amylose resin (New England Biolabs). The beads were washed three times with lysis buffer, and the bound proteins were eluted with lysis buffer containing 25 mM L-glutathione or 25 mM maltose for 15 min. The proteins were analyzed by 10–15% SDS–PAGE followed by Coomassie blue staining.

[1] = test system: eIF4E II-AA mutant (full length); assay: GST/MBP pull-down of full-length eIF4E II-AA mutant, coexpressed in E. coli; type: binding, Drosophila melanogaster; details: recombinant CUP (311–440), Thor (full length), 4E-T (1–58) or eIF4G (578–650), WT or mutant, SDS–PAGE
[2] = molecular target: T1, eIF4E–eIF4G complex (eIF4E WT; eIF4G residues 578–650) (Drosophila melanogaster, UniProt P48598); assay: Kinetic dissociation of eIF4E–eIF4G complexes by competitor; type: biochemical; details: 1 μM complex on Strep-Tactin beads; fivefold molar excess of C+NC peptide (5 μM); CUP n=3, 4E-T n=2 averages
T1 construct: full-length eIF4E (WT or the II-AA mutant) containing an N-terminal SNH-tag was coexpressed; made in house; host or cells: E. coli BL21 Star (DE3), coexpression
T1 sequence (P48598 1-248 isoform P48598-2): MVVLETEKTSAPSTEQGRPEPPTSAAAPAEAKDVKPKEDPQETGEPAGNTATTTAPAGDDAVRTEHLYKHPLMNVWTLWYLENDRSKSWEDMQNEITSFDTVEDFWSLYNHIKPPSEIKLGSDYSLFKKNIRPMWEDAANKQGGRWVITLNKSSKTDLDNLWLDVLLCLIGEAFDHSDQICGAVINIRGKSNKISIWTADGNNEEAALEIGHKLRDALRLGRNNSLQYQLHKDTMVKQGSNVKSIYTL
Experimental: To obtain the preassembled eIF4E–eIF4G complexes used in Figs 4 and 5d–g, full-length eIF4E (WT or the II-AA mutant) containing an N-terminal SNH-tag was coexpressed with an N-terminal GST-tagged eIF4G (residues 578–650). The cells were lysed by sonication in lysis buffer containing 50 mM HEPES (pH 7.2), 300 mM NaCl and 2 mM DTT. The complexes were purified from the cleared lysates using Protino Glutathione Agarose 4B beads (Machery-Nagel). The complex was further purified using a heparin column (HiTrap Heparin HP 5 ml, GE Healthcare) and a final size exclusion chromatography (Superdex 200 16/60, GE Healtcare) in 20 mM HEPES (pH 7.2), 200 mM NaCl and 2 mM DTT.
In the ‘kinetic assays’ shown in Fig. 5d–g, the purified complexes containing SHN-eIF4E and GST-eIF4G (578–650; 1 μM) were incubated with Strep-Tactin beads for 20 min. […] The eIF4E-associated proteins were pulled down, eluted and analyzed as described above. […]
The amounts of GST-eIF4G bound to eIF4E in each experimental condition were determined using the Image J software after Coomassie blue staining. […]
Each experiment was repeated at least twice. (e,f) Quantification of the experiments shown in Fig. 5d–g. […]
micrographs of fixed S2 cells expressing HA-4E-T and GFP-Tral. The localization of HA-4E-T was determined by indirect immunofluorescence using an anti-HA antibody. […]

4E-T C: 4E-T residues 9–21, canonical motif
binding to WT eIF4E (in words) (eIF4E (full length, WT)): reduced binding
binding to eIF4E II-AA mutant (in words) [1]: reduced binding

CUP C+NC: CUP residues 325–376, eIF4E-binding region short, C-terminal GB1 (KSYTRSRLMDIRNGMFNALMHRSKESFVMPRIATCDDIELEGRLRRMNIWRT-GB1; UniProt Q9VMA3 325-376, looked up, fragment)
time to 50% eIF4G dissociation [2]: 2.5 ± 0.5 min

Thor C: Thor residues 50–63, canonical motif
binding to eIF4E II-AA mutant (in words) [1]: strongly impaired in their binding
